This test addresses PAI-1 (Homo sapiens, UniProt P05121). The test can be described thus: biochemical.
[1] abbreviates: PAI chromogenic substrate assay, read-out: IC50.
The mark [2] stands for this setting: 20 μM (third part of Table 1), read-out: Degree of inhibition in PAI chromogenic substrate assay.

Read-outs that look alike come from different tables or passages of the source.

PAI-1, sequence (P05121 24-402): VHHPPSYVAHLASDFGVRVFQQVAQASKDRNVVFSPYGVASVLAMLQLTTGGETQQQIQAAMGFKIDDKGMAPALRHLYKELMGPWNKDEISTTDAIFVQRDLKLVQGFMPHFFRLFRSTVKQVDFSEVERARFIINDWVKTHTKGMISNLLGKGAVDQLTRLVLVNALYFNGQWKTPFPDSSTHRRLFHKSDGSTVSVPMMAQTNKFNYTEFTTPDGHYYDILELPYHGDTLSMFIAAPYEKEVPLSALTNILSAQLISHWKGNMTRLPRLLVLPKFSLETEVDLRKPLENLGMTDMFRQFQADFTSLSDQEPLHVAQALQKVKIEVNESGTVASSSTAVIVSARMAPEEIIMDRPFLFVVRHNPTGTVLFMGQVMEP
Protocol: In this assay, a compound is incubated with PAI-1 prior to addition to the tPA assay system. Inhibition of PAI-1 results in the production of plasmin from plasminogen. In turn, plasmin cleaves the chromogenic substrate S2251 (Kabi Vitrum) producing pNA (p-nitroaniline) which is detected spectrophotometrically at 405 nm (K. Nilsson et al, Fibrinolysis (1987) 1, 163-168).
Compounds of formula (A) were tested in a PAI chromogenic substrate assay. In the assay (K.Nilsson, Fibrinolysis (1987) 1, 163-168) each compound was incubated with PAI-1 prior to addition to the tPA assay system. […] In turn, the plasmin cleaved the chromogenic substrate S2251 (Kabi-Vitrum) producing pNA (p-nitroaniline) which was detected spectrophotometrically at 405 nm.

In the case of `CN(C)CCCOc1ccc(/C=c2\[nH]c(=O)/c(=C/c3cccc(F)c3)[nH]c2=O)cc1` [Compound 5373, (3Z,6Z)-6-(4-(3-Dimethylaminopropoxy)benzylidene)-3-(3-fluorobenzylidene)-2,5-piperazinedione], the IC50 under setting [1] is 13 µM.
`CN(C)CCCOc1ccc(/C=c2\[nH]c(=O)/c(=C/c3cc([N+](=O)[O-])cc([N+](=O)[O-])c3)[nH]c2=O)cc1` [Compound 5381, (3Z,6Z)-6-(4-(3-Dimethylaminopropoxy)benzylidene)-3-(3,5-dinitrobenzylidene)-2,5-piperazinedione] displayed an IC50 (IC50, PAI chromogenic substrate assay) of 15 µM.
Regarding `CN(C)CCCOc1ccc(/C=c2\[nH]c(=O)/c(=C/c3cccc([N+](=O)[O-])c3)[nH]c2=O)cc1` [Compound 5209, (3Z,6Z)-6-(4-(3-Dimethylaminopropoxy)benzylidene)-3-(3-nitrobenzylidene)-2,5-piperazinedione], the IC50 under setting [1] is 1.4 µM.
`COc1ccc(/C=c2\[nH]c(=O)/c(=C/c3ccc(OC(=O)CC(C)(C)C)cc3)[nH]c2=O)cc1` [Compound 1885, (3Z,6Z)-3-(4-(3,3-dimethylbutanoyloxy)benzylidene)-6-(4-methoxybenzylidene)-2,5-piperazinedione]: the inhibition at 6.25 µM (6.25 μM, read-out: Degree of inhibition in PAI chromogenic substrate assay) came to 0%. The inhibition at 12.5 µM (12.5 μM, read-out: Degree of inhibition in PAI chromogenic substrate assay) was 0%. Besides, the inhibition at 25 µM (25 μM, read-out: Degree of inhibition in PAI chromogenic substrate assay) came out at 2%. Besides, the inhibition at 50 µM (50 μM, read-out: Degree of inhibition in PAI chromogenic substrate assay) amounted to 31%. The inhibition at 100 µM (100 μM, read-out: Degree of inhibition in PAI chromogenic substrate assay) is 54%.
As for `CN(C)CCCOc1ccc(/C=c2\[nH]c(=O)/c(=C/c3cccc(Cl)c3)[nH]c2=O)cc1` [Compound 5240], the Degree of inhibition in PAI chromogenic substrate assay came to 65% (20 μM (third part of Table 1), 20 µM) and 46% (100 μM (third part of Table 1), 100 µM). Further, the concentration for half-maximal inhibition (IC50) under setting [1] turned out to be 6.5 µM.
Regarding `CN(C)CCCOc1ccc(/C=c2\[nH]c(=O)/c(=C/c3ccc(C#N)cc3)[nH]c2=O)cc1` [Compound 5348], the inhibition at 20 µM under setting [2] is 15%.
Take `CN(C)CCOc1ccc(/C=c2\[nH]c(=O)/c(=C/c3ccccc3)[nH]c2=O)c(OCCN(C)C)c1` [Compound 1984]: the Degree of inhibition in PAI chromogenic substrate assay (12.5 μM) worked out at 0%, the Degree of inhibition in PAI chromogenic substrate assay (25 μM) is 0%, the Degree of inhibition in PAI chromogenic substrate assay (50 μM) was determined as 0% and the Degree of inhibition in PAI chromogenic substrate assay (100 μM) was found to be 17%.
For the molecule `COC(=O)c1ccc(/C=c2\[nH]c(=O)/c(=C/c3ccc(OCCCN(C)C)cc3)[nH]c2=O)cc1` [Compound 5401, Methyl 4((3Z,6Z)-6-(4-(3-Dimethylaminopropoxy)benzylidene)-2,5-dioxo-3-piperazinylidene)methylbenzoate], the inhibition at 20 µM under setting [2] was 42%.
Turning to `CN(C)CCOc1ccccc1/C=c1\[nH]c(=O)/c(=C/c2ccccc2)[nH]c1=O` [Compound 1946, (3Z,6Z)-3-Benzylidene-6-(2-(2-dimethylaminoethoxy)benzylidene)-2,5-piperazinedione], the Degree of inhibition in PAI chromogenic substrate assay came to 1% (12.5 μM), 1% (25 μM), 1% (50 μM) and 7% (100 μM).
`CN(C)CCSCc1ccc(/C=c2\[nH]c(=O)/c(=C/c3ccccc3)[nH]c2=O)cc1` [Compound 5058, (3Z,6Z)-6-Benzylidene-3-(4-(2-Dimethylaminoethylthiomethyl)benzylidene)-2,5-piperazinedione]: the inhibition at 20 µM under setting [2] amounted to 75%. Moreover, for the setting “50 μM (third part of Table 1), read-out: Degree of inhibition in PAI chromogenic substrate assay”, the inhibition at 50 µM is 68%. Moreover, under “100 μM (third part of Table 1), read-out: Degree of inhibition in PAI chromogenic substrate assay”, the inhibition at 100 µM is 67%.
For `CN(C)CCOc1ccc(/C=c2\[nH]c(=O)/c(=C/c3c(Cl)cccc3Cl)[nH]c2=O)cc1` [Compound 1980, (3Z,6Z)-3-(2,6-Dichlorobenzylidene)-6-(4-(2-dimethylaminoethoxy)benzylidene)-2,5-piperazinedione], the Degree of inhibition in PAI chromogenic substrate assay (6.25 μM) was 0%; the Degree of inhibition in PAI chromogenic substrate assay (12.5 μM) came out at 13%; the Degree of inhibition in PAI chromogenic substrate assay (25 μM) is 51%; the Degree of inhibition in PAI chromogenic substrate assay (50 μM) is 41%; the Degree of inhibition in PAI chromogenic substrate assay (100 μM) was 66%.

Values taken from patent publication US5902812A, “Pharmaceutical piperazine compounds” (Xenova Limited, priority 1994, dated 1999).
